How the values were obtained:
[1] = tested on: 20-HETE synthase originated from rat kidney microsome; experiment: Inhibitory effect of 20-HETE synthase originated from rat kidney microsome; format: biochemical; conditions: for Inhibition rate (1 μM): 1 μM of the subject compound, 20-HETE production without compound set to 100%; for IC50: concentration at which production of 20-HETE was inhibited to 50%
In short: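 Kidney microsomes from 6-week male spontaneously hypertensive rats were used with tritium-arachidonic acid and NADPH. 20-HETE was quantified by radio-HPLC on a C18 column.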

melting point [°C]	IC50 [1] [nM]	SMILES	Inhibition rate (1 μM) [1]
166	–	O/N=C/Nc1ccc(SCc2ccccc2)cc1 [Comp. 441, N-[4-(benzylthio)phenyl]-N′-hydroxyformamidine]	94.2
121	12.1	OCCSc1ccc(N/C=N/O)cc1 [Comp. 444]	100.7
112	–	CN(C)CCSc1ccc(N/C=N/O)cc1 [Comp. 445]	95.1
125 to 126.5	1.9	O/N=C/Nc1ccc(SCc2ccco2)cc1 [Comp. 448]	109.8
119 to 120.5	1.8	CCC(C)Sc1ccc(N/C=N/O)cc1 (stereo not shown) [Comp. 449]	105.1
143 to 145	6.3	CC(C)(C)Sc1ccc(N/C=N/O)cc1 [Comp. 456]	94.4
108 to 108.5	2.4	OCCCSc1ccc(N/C=N/O)cc1 [Comp. 459]	119.0
